Measured values reported in the supplement of paper PMC4862054.

Key:
Details in all cases: incubation time: 72 h
[1] = test system: CAL-148; test: normalised response (% of control), CellTiter-Glo; higher = more viable cells (100 = DMSO, 0 = benzethonium chloride kill control)
How it was run: (§1)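 In 384-well plates holding compound at 5 concentrations in 10-fold steps over a 10,000-fold range specific to each compound, breast cancer cell lines were seeded as 20 µl suspension and incubated 72 h. CellTox Green fluorescence was measured at 485/520 nm, after which CellTiter-Glo luminescence was measured following 10 min at room temperature. Plate signals were normalised to 0.1 % DMSO (100) and a positive kill control (0), and each value is the normalised signal at a single concentration.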

[2] = test system: BT-474; test: as above
How it was run: as §1

[3] = test system: DU-4475; test: as above
How it was run: as §1

[4] = test system: Hs578T; test: as above
How it was run: as §1

[5] = test system: MCF-10A; test: as above
How it was run: as §1

[6] = test system: HCC1599; test: as above
How it was run: as §1

[7] = test system: MDA-MB-453; test: as above
How it was run: as §1

[8] = test system: SK-BR-3; test: as above
How it was run: as §1

[9] = test system: CAL-51; test: as above
How it was run: as §1

[10] = test system: MDA-MB-468; test: as above
How it was run: as §1

[11] = test system: CAL-85-1; test: as above
How it was run: as §1

[12] = test system: HCC1143; test: as above
How it was run: as §1

[13] = test system: MFM-223; test: as above
How it was run: as §1

[14] = test system: CAL-120; test: as above
How it was run: as §1

[15] = test system: MDA-MB-231; test: as above
How it was run: as §1

[16] = test system: HCC1937; test: as above
How it was run: as §1

[17] = test system: MDA-MB-436; test: as above
How it was run: as §1

[18] = test system: BT-549; test: as above
How it was run: as §1

[19] = test system: HDQ-P1; test: as above
How it was run: as §1

[20] = test system: CAL-148; test: normalised viability (% of control), CellTiter-Blue; higher = more viable cells (100 = DMSO, 0 = benzethonium chloride kill control)
How it was run: (§2)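 Seeded at 20 µl suspension per well onto compound-loaded 384-well plates, breast cancer cell lines were incubated 72 h. CellTiter-Blue fluorescence at 560/590 nm was then read, with each plate normalised to vehicle (100) and a positive kill control (0). Normalised viability is reported at a single listed concentration of the series.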

[21] = test system: BT-474; test: as above
How it was run: as §2

[22] = test system: DU-4475; test: as above
How it was run: as §2

[23] = test system: Hs578T; test: as above
How it was run: as §2

[24] = test system: HCC1599; test: as above
How it was run: as §2

[25] = test system: MDA-MB-453; test: as above
How it was run: as §2

[26] = test system: SK-BR-3; test: as above
How it was run: as §2

[27] = test system: CAL-51; test: as above
How it was run: as §2

[28] = test system: MDA-MB-468; test: as above
How it was run: as §2

[29] = test system: CAL-85-1; test: as above
How it was run: as §2

[30] = test system: HCC1143; test: as above
How it was run: as §2

[31] = test system: MFM-223; test: as above
How it was run: as §2

[32] = test system: CAL-120; test: as above
How it was run: as §2

[33] = test system: MDA-MB-231; test: as above
How it was run: as §2

[34] = test system: HCC1937; test: as above
How it was run: as §2

[35] = test system: MDA-MB-436; test: as above
How it was run: as §2

[36] = test system: BT-549; test: as above
How it was run: as §2

[37] = test system: HDQ-P1; test: as above
How it was run: as §2

| SMILES | normalised response [1] [%] | normalised response [2] [%] | normalised response [3] [%] | normalised response [4] [%] | normalised response [5] [%] | normalised response [6] [%] | normalised response [7] [%] | normalised response [8] [%] | normalised response [9] [%] | normalised response [10] [%] | normalised response [11] [%] | normalised response [12] [%] | normalised response [13] [%] | normalised response [14] [%] | normalised response [15] [%] | normalised response [16] [%] | normalised response [17] [%] | normalised response [18] [%] | normalised response [19] [%] | normalised viability [20] [%] | normalised viability [21] [%] | normalised viability [22] [%] | normalised viability [23] [%] | normalised viability [24] [%] | normalised viability [25] [%] | normalised viability [26] [%] | normalised viability [27] [%] | normalised viability [28] [%] | normalised viability [29] [%] | normalised viability [30] [%] | normalised viability [31] [%] | normalised viability [32] [%] | normalised viability [33] [%] | normalised viability [34] [%] | normalised viability [35] [%] | normalised viability [36] [%] | normalised viability [37] [%] |
| --- | --- | --- | --- | --- | --- | --- | --- | --- | --- | --- | --- | --- | --- | --- | --- | --- | --- | --- | --- | --- | --- | --- | --- | --- | --- | --- | --- | --- | --- | --- | --- | --- | --- | --- | --- | --- | --- |
| COC(=O)C[C@](O)(CCCC(C)(C)O)C(=O)O[C@@H]1C(OC)=C[C@]23CCCN2CCc2cc4c(cc2[C@H]13)OCO4 [Omacetaxine] (1 nM) | 110 | 106 | 96 | 101 | 108 | 88.4 | 121 | 108 | 79.9 | 108 | 101 | 109 | 103 | 99.8 | 104 | 98.3 | 97.1 | 92.1 | 104 | 107 | 101 | 93.6 | 106 | 78.4 | 91.6 | 97.3 | 96.3 | 95.2 | 90.6 | 91.7 | 90.3 | 82 | 97.3 | 96.5 | 91.1 | 95.4 | 84.7 |
| CC(=O)O[C@H]1C(=O)[C@@]2(C)[C@H]([C@H](OC(=O)c3ccccc3)[C@]3(O)C[C@H](OC(=O)[C@H](O)[C@@H](NC(=O)c4ccccc4)c4ccccc4)C(C)=C1C3(C)C)[C@]1(OC(C)=O)CO[C@@H]1C[C@@H]2O [Paclitaxel] (0.1 nM) | 89.6 | 95.5 | 93.8 | 100 | 87.9 | 100 | 89.9 | 88.4 | 103 | 95.7 | 99.2 | 93.6 | 89.9 | 89.7 | 96.6 | 90.5 | 98.7 | 100 | 96.4 | 106 | 82 | 115 | 103 | 102 | 97.5 | 90.2 | 93.8 | 105 | 98.2 | 106 | 93.9 | 90.6 | 73.8 | 84.3 | 95.8 | 116 | 82.6 |
| CC(C)(C)c1cc(NC(=O)Nc2ccc(-c3cn4c(n3)sc3cc(OCCN5CCOCC5)ccc34)cc2)no1 [Quizartinib] (0.1 nM) | 110 | 108 | 104 | 99.8 | 101 | 112 | 105 | 109 | 87.7 | 107 | 110 | 100 | 108 | 103 | 106 | 103 | 101 | 96.2 | 99.5 | 105 | 115 | 117 | 120 | 89.4 | 113 | 90.9 | 103 | 92.3 | 89.4 | 99.6 | 81.8 | 99.7 | 105 | 109 | 98.1 | 92.8 | 74.7 |
| O=C(c1ccc(OCCN2CCCCC2)cc1)c1c(-c2ccc(O)cc2)sc2cc(O)ccc12 [Raloxifene] (1 nM) | 108 | 99.7 | 102 | 108 | 109 | 97 | 105 | 110 | 114 | 101 | 101 | 109 | 99.6 | 97.9 | 101 | 102 | 105 | 104 | 107 | 98.2 | 71.6 | 110 | 99.8 | 101 | 85 | 90.8 | 96.8 | 105 | 103 | 86.1 | 91.2 | 90.7 | 87.1 | 88.3 | 91.6 | 95.2 | 101 |
| Cn1c(=O)c(F)c(Nc2ccc(I)cc2F)c2c(=O)n(C[C@@H](O)CO)cnc21 [TAK-733] (0.1 nM) | 104 | 103 | 99.4 | 101 | 114 | 94.3 | 115 | 111 | 74 | 102 | 96.6 | 102 | 108 | 98 | 105 | 100 | 96.2 | 91.8 | 97.1 | 105 | 68.7 | 112 | 128 | 73.2 | 111 | 97.9 | 101 | 95.8 | 90.7 | 101 | 99.9 | 87.1 | 105 | 88.7 | 105 | 101 | 120 |
| CCS(=O)(=O)c1cccc(-c2cc(C(=O)NC3CCN(C)CC3)c(C)c3[nH]c4ncc(C)cc4c23)c1 [TAK-901] (0.1 nM) | 101 | 101 | 106 | 111 | 109 | 108 | 117 | 113 | 122 | 100 | 103 | 108 | 106 | 97.4 | 101 | 91.8 | 93.8 | 106 | 98.9 | 102 | 76.6 | 85.1 | 109 | 87 | 96.1 | 92 | 90.9 | 95.9 | 83.7 | 94.9 | 96.7 | 87.2 | 104 | 105 | 108 | 112 | 111 |
